Data on 2 molecules can be found in US9828407B2, “Water soluble and activable phenolic derivatives with dermocosmetic and therapeutic applications and process for preparing said derivatives” (LIBRAGEN, priority 2006, dated 2017).

The nature of one data set: Solubility in water. The following applies: 25° C. Type of data set: physicochemical.
The conditions of data set [1]: background statement; cited from earlier work.
For data set [2], the system named is α-glucosidase (from Saccharomyces cerevisiae). The experiment in a line: Activation (hydrolysis) of Taxifolin glucoside by an α-glucosidase preparation. It is filed as biochemical. The following applies: 18 hours, 30° C., potassium phosphate buffer 0.1 M. On the procedure:
The reaction media were analysed by HPLC (method 2) after a 2-fold dilution of an aliquot with methanol.

“And” between values parts separate entries of the source, which are not always exact repeats. Equal entries are not always repeated. Where two headings read alike, the source gives them in different places.

The term solubility denotes the concentration that dissolves in the medium under given conditions. Lower therefore signals a poorly soluble substance. Regarding `O=C1c2c(O)cc(O)cc2OC(c2ccc(O)c(O)c2)C1O` (centres unmarked) [Taxifolin, 3,5,7,3′,4′-pentahydroxyflavanone], the solubility in the data set “Solubility in water” was 1190 µg/mL and 3910 µM. In addition, the “solubility in aqueous solution” value in data set [1] is on record as “around 1 g/l”.
For “taxifolin O-α-glucoside [Taxifolin glucoside]”, the “conversion of Taxifolin glucoside in the presence of the α-glucosidase enzyme” value in data set [2] (pH 7.3) is “totally converted into Taxifolin”. For the same molecule, the “stability of Taxifolin glucoside in the medium without α-glucosidase enzyme” value in data set [2] (pH 7.3, no enzyme) is listed as “remained unchanged”. Moreover, the “colour or odour changes on storage” value (4° C., 22° C., 37° C. and 45° C., 4 months) is recorded as “No colour or odour changes”. For the same molecule, the “Measured quantity of taxifolin glucoside (in % of the initial quantity)” value runs as follows: (day 0, stored at +4° C.) 100%; (day 0, stored at +22° C.) 100%; (day 0, stored at +37° C.) 100%; (day 0, stored at +45° C.) 100%; (day 9, stored at +4° C.) 100%; (day 9, stored at +22° C.) 100%. In addition, the “Measured quantity of taxifolin glucoside (in % of the initial quantity)” value is on record as 100% (day 9, stored at +37° C.); 100% (day 9, stored at +45° C.); 100% (day 23, stored at +4° C.); 100% (day 23, stored at +22° C.); 100% (day 23, stored at +37° C.); 91% (day 23, stored at +45° C.). The “Measured quantity of taxifolin glucoside (in % of the initial quantity)” value reads like this: (day 37, stored at +4° C.) 100%; (day 37, stored at +22° C.) 100%; (day 37, stored at +37° C.) 100%; (day 37, stored at +45° C.) 94%; (day 63, stored at +4° C.) 100%; (day 63, stored at +22° C.) 95%. The “Measured quantity of taxifolin glucoside (in % of the initial quantity)” value (day 63, stored at +37° C.) turned out to be 96%; the “Measured quantity of taxifolin glucoside (in % of the initial quantity)” value (day 63, stored at +45° C.) was determined as 79%; the “Measured quantity of taxifolin glucoside (in % of the initial quantity)” value (day 118, stored at +4° C.) was 100%; the “Measured quantity of taxifolin glucoside (in % of the initial quantity)” value (day 118, stored at +22° C.) stood at 100%; the “Measured quantity of taxifolin glucoside (in % of the initial quantity)” value (day 118, stored at +37° C.) is recorded as 91%; the “Measured quantity of taxifolin glucoside (in % of the initial quantity)” value (day 118, stored at +45° C.) is on record as 73%.
